Strand notation (5' to 3'): a small letter for the sugar, then the base; units joined by * are phosphorothioate-linked, units joined directly phosphodiester-linked; [ ] holds rarer units or linkages, { } end groups; capitals alone tell only the bases. [Uhd] = commercial lipid-conjugated uridine analogue Uhd (C16), from Hongene, reference; {VP} = (thio)vinylphosphonate on the antisense 5' nucleotide, as listed; e = 2'-O-(2-methoxyethyl) (MOE); m = 2'-O-methyl; f = 2'-fluoro
What was measured:
[1] = system: target gene SOD1; test: Test Example 8: inhibitory activity on target gene SOD1 in adipose tissues in different parts of mice; format: in vivo, C57BL/6j mice; conditions: D14; for Subcutaneous fat % Mean value of inhibition rate: abdominal subcutaneous fat; for Subcutaneous fat % Mean value of inhibition rate / Brown fat on back % Mean value of inhibition rate / Paragonadal fat % Mean value of inhibition rate: tail vein injection 5 mg/kg
Description: (§1) RNA extraction: the above tissue samples were taken out from the RNAlater, and smashed for 60 s in Tissuelyser type II full-automatic tissue homogenizer, and total RNAs of various tissue samples were extracted using the full-automatic nucleic acid extraction instrument and the nucleic acid extraction kit from Zhejiang Hanwei Science and Technology Co. Ltd. according to methods described in instructions.
(§2) Reverse transcription reaction: 1 μg of the extracted total RNAs of the tissue samples were taken, and configured into 20 μL of reverse transcription system according to a method described in kit instructions by using a reverse transcription kit (Reverse Transcription System, A3500) from Promega Corporation and selecting Oligo (dT)15 reverse transcription primers, and the reverse transcription reaction was completed. After the reaction was ended, 80 μL of RNase-Free water was added into the reverse transcription system to provide cDNA solution for Real-time PCR detection.
(§3) Real-time PCR detection: 20 μL of Real-time PCR reaction system per PCR detection well was configured according to a method described in kit instructions using SYBR™ Select Master Mix (Catalog number: 4472908) reagent from ABI company. Each detection system contained 5 μL of cDNA template obtained from the above reverse transcription reaction, 10 μL of SYBR™ Select Master Mix, 0.5 μL of 10 μM upstream primers, 0.5 μL of 10 μM downstream primers, and 4 μL of RNase-Free H2O. The configured reaction system was subjected to Real-time PCR amplification on ABI StepOnePlus PCR instrument by a three-step method, wherein an amplification procedure was pre-denaturation at 95° C. for 10 min, then denaturation at 95° C. for 30 s, annealing at 60° C. for 30 s, and extension at 72° C. for 30 s; and processes of denaturation, annealing, and extension were repeated for 40 cycles. Gene expression differences were calculated by the ΔΔCt method after completion of the procedure.
(§4) In the real-time fluorescence quantitative PCR method, relative quantitative calculation of remaining expression level and inhibition rate of gene mRNA of interest in various test groups was performed by the ΔΔCt method, and the calculation method is as follows:
(§5) The present test example evaluated, by an evaluation method for inhibitory activity on a target gene in mice, the inhibitory activity of siRNA sequence RZ899090 with the sense strand with the NM073 conjugation at Position 4, siRNA sequence RZ899091 with the sense strand with the NM074 conjugation at Position 4, siRNA sequence RZ899078 with the sense strand with the NM202 conjugation at Position 6 and siRNA reference sequence RZ899093 with the sense strand with the Uhd conjugation at Position 4, siRNA reference sequence RZ899076 with the sense strand with the NM200 conjugation at Position 4 on the target gene SOD1 in adipose tissues of interest in mice.
(§6) 6-8 Week-old C57BL/6j mice were randomly grouped by body weight, 5 per group, 6 groups in total. Mice in each group were dosed with the above siRNA conjugates by tail vein injection, with an administration dose of 5 mg/kg per mouse, and an administration volume of 150 μL. PBS control group was administered with the same volume of siRNA conjugate-free PBS solution. The day of administration was recorded as D0, and 5 mice in each group were sacrificed on D14 after administration. Paragonadal fat, abdominal subcutaneous fat, and brown fat on back were respectively taken. RNA extraction, reverse transcription, and real-time fluorescence quantitative detection were performed on various tissues according to the above method, and gene expression differences were calculated by the above ΔΔCt method.

[2] = system: target gene SOD1; test: Test Example 7: inhibitory activity of lipid conjugated siRNA sequences on SOD1 in mouse adipose and muscle tissues (tail vein injection); format: in vivo, C57BL/6j mice; conditions: for D 14 % Mean value of inhibition rate / D 28 % Mean value of inhibition rate / D 49 % Mean value of inhibition rate / Kidney D 14 % Mean value of inhibition rate / Kidney D 28 % Mean value of inhibition rate / Kidney D 49 % Mean value of inhibition rate / Liver D 14 % Mean value of inhibition rate / Liver D 28 % Mean value of inhibition rate / Liver D 49 % Mean value of inhibition rate: tail vein injection 5 mg/kg; for D 28 % Mean value of inhibition rate / Kidney D 28 % Mean value of inhibition rate / Liver D 28 % Mean value of inhibition rate: D28; for D 49 % Mean value of inhibition rate / Kidney D 49 % Mean value of inhibition rate / Liver D 49 % Mean value of inhibition rate: D49; for Kidney D 14 % Mean value of inhibition rate / Kidney D 28 % Mean value of inhibition rate / Kidney D 49 % Mean value of inhibition rate: mouse kidney; for Liver D 14 % Mean value of inhibition rate / Liver D 28 % Mean value of inhibition rate / Liver D 49 % Mean value of inhibition rate: mouse liver
Description: as §1, §2, §3, §4
as §5, with “Position 4, and siRNA reference” for “Position 4, siRNA reference”, “gene SOD1 of interest” for “gene SOD1 in adipose tissues of interest”, “in mice. The above conjugation vectors were different in that NM073 was C18 aliphatic chain, NM074 was C20 aliphatic chain, and NM0202 and NM0200 were C22 aliphatic chains.” for “in mice.”
as §6, with “weight, 15” for “weight, 5”, “on D14, D28 and D49” for “on D14”, “administration. Tissues such as paragonadal” for “administration. Paragonadal”, “fat, left hind leg quadriceps muscle, heart, liver,” for “fat, abdominal subcutaneous fat,”, “and kidney” for “and brown fat on back”, “respectively taken and stored in the RNAlater.” for “respectively taken.”

[3] = mouse adipose tissues (paragonadal fat), D14
[4] = mouse adipose tissues (paragonadal fat)
[5] = mouse skeletal muscle tissues (left hind leg quadriceps muscle), D14
[6] = mouse skeletal muscle tissues (left hind leg quadriceps muscle)

| Substance | Subcutaneous fat % Mean value of inhibition rate [1] | Brown fat on back % Mean value of inhibition rate [1] | Paragonadal fat % Mean value of inhibition rate [1] | D 14 % Mean value of inhibition rate [2, 3] | D 28 % Mean value of inhibition rate [2, 4] | D 49 % Mean value of inhibition rate [2, 4] | D 14 % Mean value of inhibition rate ([2]; mouse heart tissues, D14) | D 28 % Mean value of inhibition rate ([2]; mouse heart tissues) | D 49 % Mean value of inhibition rate ([2]; mouse heart tissues) | Kidney D 14 % Mean value of inhibition rate ([2]; D14) | Kidney D 28 % Mean value of inhibition rate [2] | Kidney D 49 % Mean value of inhibition rate [2] | Liver D 14 % Mean value of inhibition rate ([2]; D14) | Liver D 28 % Mean value of inhibition rate [2] | Liver D 49 % Mean value of inhibition rate [2] | D 14 % Mean value of inhibition rate [2, 5] | D 28 % Mean value of inhibition rate [2, 6] | D 49 % Mean value of inhibition rate [2, 6] | further results |
| --- | --- | --- | --- | --- | --- | --- | --- | --- | --- | --- | --- | --- | --- | --- | --- | --- | --- | --- | --- |
| RZ899076: siRNA reference sequence with the sense strand with the NM200 (C22) conjugation at Position 4; SEQ ID NO: 18 / 24 (sense UUUNAAUCCUCACUCUAAA; antisense UUUAGAGUGAGGAUUAAAAUG; NM200 (C22) conjugate at sense position 4; modified_base 1..2 OTHER; 2'-methoxy and 5'-thiophosphate modified nucleotides; modified_base 3 OTHER; 2'-methoxy modified nucleotide; modified_base 4 OTHER; n is the synthetic nucleotide analog NM200 as described in the disclosure.; modified_base 5..6 OTHER; 2'-methoxy modified nucleotides; modified_base 7..10 OTHER; 2'-fluoro modified nucleotides; modified_base 11..19 OTHER; 2'-methoxy modified ; modified_base 1 OTHER; 2'-methoxy and 5'-thiovinylphosphonate modified nucleotide; modified_base 2 OTHER; 2'-fluoro and 5'-thiophosphate modified …) [reference compound] | 76.03% | 80.80% | 56.52% | 92.23% | 86.10% | 73.36% | 70.04% | 70.45% | 37.03% | 9.13% | 9.82% | 7.06% | 51.15% | 15.46% | −13.46% | 82.53% | 81.97% | 66.88% |  |
| RZ899090: siRNA sequence with the sense strand with the NM073 (C18) conjugation at Position 4; SEQ ID NO: 15 / 23 (sense UUUNAAUCCUCACUCUAAA; antisense UUUAGAGUGAGGAUUAAAAUG; NM073 (C18) conjugate at sense position 4; modified_base 1..2 OTHER; 2'-methoxy and 5'-thiophosphate modified nucleotides; modified_base 3 OTHER; 2'-methoxy modified nucleotide; modified_base 4 OTHER; n is the nucleotide analog NM073 as described in the disclosure.; modified_base 5..6 OTHER; 2'-methoxy modified nucleotides; modified_base 7..10 OTHER; 2'-fluoro modified nucleotides; modified_base 11..19 OTHER; modified_base 1 OTHER; 2'-methoxy and 5'-thiovinylphosphonate modified nucleotide; modified_base 2 OTHER; 2'-fluoro and 5'-thiophosphate modified nucleotide; modified_base 3..5 OTHER; …) | 71.07% | 81.60% | 67.09% | 92.09% | 85.11% | 61.34% | 79.58% | 82.12% | 65.43% | 31.38% | 15.90% | 7.12% | 36.99% | 7.32% | −12.46% | 57.16% | 51.23% | 42.93% | inhibitory activity compared with the NM200 conjugated reference sequence RZ899076 ([1]; paragonadal fat and brown fat on back, tail vein 5 mg/kg): equivalent or superior inhibitory activity; inhibitory action on the target gene compared with RZ899076 ([1]; subcutaneous fat, tail vein 5 mg/kg): substantially comparable; inhibitory action on liver and kidney tissues ([2]; liver and kidney (non-target tissues), tail vein 5 mg/kg, D28 and D49): no inhibitory action; inhibitory activity compared with the NM200 conjugated reference sequence RZ899076 ([2]; mouse adipose tissues, tail vein 5 mg/kg, D14): on par; inhibitory activity compared with Uhd conjugated reference sequence RZ899093 and NM200 conjugated reference sequence RZ899076 ([2]; mouse heart tissues, tail vein 5 mg/kg, D14, D28 and D49): superior inhibitory activity; inhibitory activity in mouse skeletal muscle tissues ([2]; skeletal muscle, tail vein 5 mg/kg): certain inhibitory activity |
| RZ899093: siRNA reference sequence with the sense strand with the Uhd (C16) conjugation at Position 4; SEQ ID NO: 13 / 23 (sense mU*mU*mU[Uhd]mAmAfUfCfCfUmCmAmCmUmCmUmAmAmA; antisense {VP}-mU*fU*mUmAmGfAmGmUmGmAmGfGmAfUeUfAmAmAmA*mU*mG) [reference compound] | 85.92% | 77.13% | 76.20% | 88.95% | 81.22% | 81.75% | 57.83% | 60.42% | 44.18% | 42.87% | 19.28% | 18.90% | 48.04% | 13.41% | 13.02% | 68.42% | 64.12% | 44.88% |  |
